± gives the uncertainty stated by the source.
Assay: xn = mol fraction of the nth substance listed

CC[N+](C)(CC)CCOC.F[B-](F)(F)F + O=C1CCCO1
101 kPa
Conditions | electrical conductivity [S/m] | viscosity [mPa·s]
288.15 K, x1 = 0.1006 | 0.841 ± 0.01 | 6.82 ± 0.15
288.15 K, x1 = 0.2004 | 0.851 ± 0.01 | 9.23 ± 0.2
288.15 K, x1 = 0.3005 | 0.691 ± 0.01 | 16.02 ± 0.34
288.15 K, x1 = 0.4002 | 0.57 ± 0.01 | 23.81 ± 0.51
288.15 K, x1 = 0.4999 | 0.424 ± 0.01 | 63.2 ± 1.4
288.15 K, x1 = 0.6001 | 0.29 ± 0.01 | 103.1 ± 3.1
288.15 K, x1 = 0.6998 | 0.215 ± 0.01 | 157.6 ± 6.4
288.15 K, x1 = 0.7999 | 0.164 ± 0.01 | 213 ± 10
293.15 K, x1 = 0.1006 | 0.951 ± 0.01 | 5.32 ± 0.11
293.15 K, x1 = 0.2004 | 0.976 ± 0.01 | 7.92 ± 0.17
293.15 K, x1 = 0.3005 | 0.817 ± 0.01 | 13.79 ± 0.29
293.15 K, x1 = 0.4002 | 0.688 ± 0.01 | 20.66 ± 0.44
293.15 K, x1 = 0.4999 | 0.522 ± 0.01 | 49.1 ± 1
293.15 K, x1 = 0.6001 | 0.377 ± 0.01 | 78.1 ± 1.9
293.15 K, x1 = 0.6998 | 0.298 ± 0.01 | 116.8 ± 3.8
293.15 K, x1 = 0.7999 | 0.227 ± 0.01 | 155.5 ± 6.3
298.15 K, x1 = 0.1006 | 1.06 ± 0.011 | 4.185 ± 0.089
298.15 K, x1 = 0.2004 | 1.114 ± 0.011 | 6.94 ± 0.15
298.15 K, x1 = 0.3005 | 0.956 ± 0.01 | 11.91 ± 0.25
298.15 K, x1 = 0.4002 | 0.811 ± 0.01 | 17.89 ± 0.38
298.15 K, x1 = 0.4999 | 0.641 ± 0.01 | 38.49 ± 0.82
298.15 K, x1 = 0.6001 | 0.472 ± 0.01 | 59.7 ± 1.2
298.15 K, x1 = 0.6998 | 0.389 ± 0.01 | 86.9 ± 2.3
303.15 K, x1 = 0.1006 | 1.18 ± 0.012 | 3.324 ± 0.071
303.15 K, x1 = 0.2004 | 1.26 ± 0.013 | 6.02 ± 0.13
303.15 K, x1 = 0.3005 | 1.113 ± 0.011 | 10.17 ± 0.22
303.15 K, x1 = 0.4002 | 0.971 ± 0.01 | 15.32 ± 0.33
303.15 K, x1 = 0.4999 | 0.783 ± 0.01 | 30.01 ± 0.64
303.15 K, x1 = 0.6001 | 0.596 ± 0.01 | 45.3 ± 0.97
303.15 K, x1 = 0.6998 | 0.503 ± 0.01 | 64.6 ± 1.4
308.15 K, x1 = 0.1006 | 1.28 ± 0.013 | 2.671 ± 0.057
308.15 K, x1 = 0.2004 | 1.433 ± 0.014 | 5.26 ± 0.11
308.15 K, x1 = 0.3005 | 1.28 ± 0.013 | 8.82 ± 0.19
308.15 K, x1 = 0.4002 | 1.126 ± 0.011 | 13.39 ± 0.29
308.15 K, x1 = 0.4999 | 0.927 ± 0.01 | 24.01 ± 0.51
308.15 K, x1 = 0.6001 | 0.725 ± 0.01 | 35.23 ± 0.75
308.15 K, x1 = 0.6998 | 0.615 ± 0.01 | 48.3 ± 1
313.15 K, x1 = 0.1006 | 1.416 ± 0.014 | 2.197 ± 0.047
313.15 K, x1 = 0.2004 | 1.606 ± 0.016 | 4.633 ± 0.099
313.15 K, x1 = 0.3005 | 1.47 ± 0.015 | 7.63 ± 0.16
313.15 K, x1 = 0.4002 | 1.29 ± 0.013 | 11.62 ± 0.25
313.15 K, x1 = 0.4999 | 1.09 ± 0.011 | 19.44 ± 0.41
313.15 K, x1 = 0.6001 | 0.868 ± 0.01 | 27.85 ± 0.59
313.15 K, x1 = 0.6998 | 0.745 ± 0.01 | 36.75 ± 0.78
318.15 K, x1 = 0.1006 | 1.55 ± 0.016 | 1.855 ± 0.04
318.15 K, x1 = 0.2004 | 1.78 ± 0.018 | 4.085 ± 0.087
318.15 K, x1 = 0.3005 | 1.65 ± 0.017 | 6.55 ± 0.14
318.15 K, x1 = 0.4002 | 1.48 ± 0.015 | 10.01 ± 0.21
318.15 K, x1 = 0.4999 | 1.27 ± 0.013 | 15.67 ± 0.33
318.15 K, x1 = 0.6001 | 1.04 ± 0.01 | 21.94 ± 0.47
318.15 K, x1 = 0.6998 | 0.878 ± 0.01 | 27.84 ± 0.59
323.15 K, x1 = 0.1006 | 1.69 ± 0.017 | 1.577 ± 0.034
323.15 K, x1 = 0.2004 | 1.97 ± 0.02 | 3.603 ± 0.077
323.15 K, x1 = 0.3005 | 1.839 ± 0.018 | 5.68 ± 0.12
323.15 K, x1 = 0.4002 | 1.68 ± 0.017 | 8.77 ± 0.19
323.15 K, x1 = 0.4999 | 1.46 ± 0.015 | 12.42 ± 0.26
323.15 K, x1 = 0.6001 | 1.22 ± 0.012 | 16.68 ± 0.36
323.15 K, x1 = 0.6998 | 1.02 ± 0.01 | 20.94 ± 0.45
328.15 K, x1 = 0.1006 | 1.827 ± 0.018 | 1.35 ± 0.029
328.15 K, x1 = 0.2004 | 2.15 ± 0.022 | 3.183 ± 0.068
328.15 K, x1 = 0.3005 | 2.05 ± 0.021 | 4.95 ± 0.11
328.15 K, x1 = 0.4002 | 1.89 ± 0.019 | 7.71 ± 0.16
328.15 K, x1 = 0.4999 | 1.66 ± 0.017 | 10.11 ± 0.22
328.15 K, x1 = 0.6001 | 1.41 ± 0.014 | 13.1 ± 0.28
328.15 K, x1 = 0.6998 | 1.21 ± 0.012 | 15.79 ± 0.34
333.15 K, x1 = 0.1006 | 1.96 ± 0.02 | 1.142 ± 0.025
333.15 K, x1 = 0.2004 | 2.34 ± 0.023 | 2.827 ± 0.06
333.15 K, x1 = 0.3005 | 2.25 ± 0.023 | 4.282 ± 0.091
333.15 K, x1 = 0.4002 | 2.1 ± 0.021 | 6.74 ± 0.14
333.15 K, x1 = 0.4999 | 1.86 ± 0.019 | 8.58 ± 0.18
333.15 K, x1 = 0.6001 | 1.63 ± 0.016 | 11.02 ± 0.23
333.15 K, x1 = 0.6998 | 1.404 ± 0.014 | 12.64 ± 0.27
338.15 K, x1 = 0.1006 | 2.08 ± 0.021 | 0.992 ± 0.021
338.15 K, x1 = 0.2004 | 2.53 ± 0.025 | 2.498 ± 0.053
338.15 K, x1 = 0.3005 | 2.47 ± 0.025 | 3.693 ± 0.079
338.15 K, x1 = 0.4002 | 2.32 ± 0.023 | 5.89 ± 0.13
338.15 K, x1 = 0.4999 | 2.09 ± 0.021 | 6.92 ± 0.15
338.15 K, x1 = 0.6001 | 1.86 ± 0.019 | 8.55 ± 0.18
338.15 K, x1 = 0.6998 | 1.607 ± 0.016 | 9.17 ± 0.19
343.15 K, x1 = 0.1006 | 2.21 ± 0.022 | 0.876 ± 0.019
343.15 K, x1 = 0.2004 | 2.73 ± 0.027 | 2.235 ± 0.048
343.15 K, x1 = 0.3005 | 2.68 ± 0.027 | 3.194 ± 0.068
343.15 K, x1 = 0.4002 | 2.54 ± 0.025 | 5.15 ± 0.11
343.15 K, x1 = 0.4999 | 2.29 ± 0.023 | 5.85 ± 0.13
343.15 K, x1 = 0.6001 | 2.1 ± 0.021 | 7.16 ± 0.15
343.15 K, x1 = 0.6998 | 1.85 ± 0.019 | 6.87 ± 0.15
348.15 K, x1 = 0.1006 | 2.35 ± 0.024 | 0.795 ± 0.017
348.15 K, x1 = 0.2004 | 2.92 ± 0.029 | 2.001 ± 0.043
348.15 K, x1 = 0.3005 | 2.91 ± 0.029 | 2.754 ± 0.059
348.15 K, x1 = 0.4002 | 2.79 ± 0.028 | 4.507 ± 0.096
348.15 K, x1 = 0.4999 | 2.56 ± 0.026 | 4.69 ± 0.1
348.15 K, x1 = 0.6001 | 2.35 ± 0.024 | 5.48 ± 0.12
348.15 K, x1 = 0.6998 | 2.08 ± 0.021 | 5.52 ± 0.12
353.15 K, x1 = 0.1006 | 2.48 ± 0.025 | 0.716 ± 0.015
353.15 K, x1 = 0.2004 | 3.14 ± 0.031 | 1.753 ± 0.037
353.15 K, x1 = 0.3005 | 3.11 ± 0.031 | 2.391 ± 0.051
353.15 K, x1 = 0.4002 | 3.04 ± 0.03 | 4.028 ± 0.086
353.15 K, x1 = 0.4999 | 2.82 ± 0.028 | 3.864 ± 0.082
353.15 K, x1 = 0.6001 | 2.62 ± 0.026 | 4.301 ± 0.092
353.15 K, x1 = 0.6998 | 2.36 ± 0.024 | 3.983 ± 0.085

CC[n+]1ccn(C)c1.O=S(=O)([O-])C(F)(F)F + F[B-](F)(F)F.[Li+]
101 kPa, x1 = 1
Conditions | electrical conductivity [S/m]
288.15 K | 0.605 ± 0.061
298.15 K | 0.859 ± 0.086
333.15 K | 2.24 ± 0.22

CC[N+](C)(CC)CCOC.F[B-](F)(F)F + CCCC[n+]1ccn(C)c1C.F[B-](F)(F)F
100 kPa
Conditions | electrical conductivity [S/m]
313.15 K, x1 = 0.4 | 0.289 ± 0.017
313.15 K, x1 = 0.7 | 0.302 ± 0.018
318.15 K, x1 = 0.2 | 0.318 ± 0.019
318.15 K, x1 = 0.4 | 0.361 ± 0.022
318.15 K, x1 = 0.5 | 0.369 ± 0.022
318.15 K, x1 = 0.8 | 0.41 ± 0.025
318.15 K, x1 = 1 | 0.437 ± 0.026
328.15 K, x1 = 0.1 | 0.492 ± 0.03
328.15 K, x1 = 0.2 | 0.502 ± 0.03
328.15 K, x1 = 0.5 | 0.555 ± 0.033
328.15 K, x1 = 0.9 | 0.682 ± 0.041
333.15 K, x1 = 0.5 | 0.685 ± 0.041
338.15 K, x1 = 0.4 | 0.772 ± 0.046
343.15 K, x1 = 0.4 | 0.913 ± 0.055
348.15 K, x1 = 0.6 | 1.14 ± 0.069
353.15 K, x1 = 0.2 | 1.18 ± 0.071
353.15 K, x1 = 0.3 | 1.21 ± 0.07
353.15 K, x1 = 0.4 | 1.24 ± 0.074
353.15 K, x1 = 0.5 | 1.27 ± 0.076
353.15 K, x1 = 0.7 | 1.38 ± 0.083
353.15 K, x1 = 1 | 1.62 ± 0.097
358.15 K, x1 = 0.3 | 1.39 ± 0.083
358.15 K, x1 = 0.4 | 1.42 ± 0.085
358.15 K, x1 = 0.8 | 1.61 ± 0.097
363.15 K, x1 = 0.5 | 1.67 ± 0.1
363.15 K, x1 = 1 | 2.1 ± 0.13
